Source: patent US8937176B2, “Compounds” (Boehringer Ingelheim International GmbH, priority 2011, dated 2015)

These compounds were tested against T1, human recombinant mGluR5 (Homo sapiens, UniProt P41594) (assay: Positive modulation of mGluR5, calcium based FLIPR assay in HEK 293 cells). Settings: EC50 of the modulation; HEK 293 cell line expressing human recombinant mGluR5; glutamate at approximately 5% basal stimulation; peak height of Ca release fluorescence signal.
T1 construct: expressed in transfected cells; host or cells: HEK 293 cell line
Experimental: The positive modulation of mGluR5 is measured in a HEK 293 cell line expressing human recombinant mGluR5 and is detected with calcium based FLIPR assay. The cells are cultured with DMEM supplemented with 10% FCS, 2 μg/mL tetracycline, 100 μg/mL hygromycin and 500 μg/mL gneticin. The cell culture media is exchanged for tetracycline-free cell culture media 3-7 days before the assay. One day before the assay the cell culture medium is exchanged to DMEM without glutamine and phenol red and supplemented with 10% FCS, 100 μg/mL hygromycin and 500 μg/mL geneticin. On the assay day, the medium of the subconfluent cultures is removed and the cells are detached by addition of 2.5 ml EDTA(0.02%) per 175 cm2 culture flask for 1 minute. The cells are resuspend in Ringer solution (140 mM NaCl, 5 mM KCl, 2.5 mM CaCl2, 1.5 mM MgCl2, 5 mM Glucose, 10 mM Hepes; adjusted to pH 7.4 with NaOH), pooled and Ringer solution added to adjust the volume to 50 mL. The cell suspension is centrifuged for […] at 1500 U/min (425 g). The supernatant is removed and the cells washed a second time with 50 ml fresh Ringer solution and centrifuged again as before. The supernatant is again removed and the pellet resuspended in Ringer solution to 1,000,000 cells/ml (1×10^6 cells/mL). The cells are plated onto BD BioCoat Poly-D-Lysine 384 well plates (20.000 cells/well; 20 μl/well). The lid covered plates are then incubated until use at 37° C./10% CO2. For dye loading, 20 μl of Calcium-4 assay kit solution (prepared according to the manufacturer's description in Ringer solution) are added to the cells and the plates are incubated for 80 min 37° C. and then 10 min at room temperature.
Controls, Compound Dilution and Assay Execution:
Each assay plate contained wells with “high” and “low” controls:
Low controls 1% DMSO/ringer solution+basal glutamate activation (defined as 100% CTL).
High controls 10 μM CDPPB+basal glutamate activation (defined as 200% CTL).
Test compounds are dissolved and diluted in DMSO to 100-fold the desired concentrations. In a second step, the compounds are diluted in Ringer solution such that the compounds are 4-fold more concentrated than the desired final assay concentration. The final DMSO concentration was 1%.
20 μl of each compound solution are then transferred to the assay plate and the Ca2+ kinetic is measured to determine any intrinsic compound activity. After 5 min incubation in the FLIPR device, the second stimulation with 20 μl of glutamate in Ringer solution (glutamate concentration adjusted to approximately 5% basal stimulation of the maximal possible glutamate effect) is added and the kinetic Ca2+ response of the wells was measured for the modulation effect.
The peak height of the Ca release related fluorescence signal (9-66) is used for the EC50. The EC50 of the modulation is calculated over a nonlinear regression with GraphPad Prism (Table 1).

T1 sequence (P41594 21-1212): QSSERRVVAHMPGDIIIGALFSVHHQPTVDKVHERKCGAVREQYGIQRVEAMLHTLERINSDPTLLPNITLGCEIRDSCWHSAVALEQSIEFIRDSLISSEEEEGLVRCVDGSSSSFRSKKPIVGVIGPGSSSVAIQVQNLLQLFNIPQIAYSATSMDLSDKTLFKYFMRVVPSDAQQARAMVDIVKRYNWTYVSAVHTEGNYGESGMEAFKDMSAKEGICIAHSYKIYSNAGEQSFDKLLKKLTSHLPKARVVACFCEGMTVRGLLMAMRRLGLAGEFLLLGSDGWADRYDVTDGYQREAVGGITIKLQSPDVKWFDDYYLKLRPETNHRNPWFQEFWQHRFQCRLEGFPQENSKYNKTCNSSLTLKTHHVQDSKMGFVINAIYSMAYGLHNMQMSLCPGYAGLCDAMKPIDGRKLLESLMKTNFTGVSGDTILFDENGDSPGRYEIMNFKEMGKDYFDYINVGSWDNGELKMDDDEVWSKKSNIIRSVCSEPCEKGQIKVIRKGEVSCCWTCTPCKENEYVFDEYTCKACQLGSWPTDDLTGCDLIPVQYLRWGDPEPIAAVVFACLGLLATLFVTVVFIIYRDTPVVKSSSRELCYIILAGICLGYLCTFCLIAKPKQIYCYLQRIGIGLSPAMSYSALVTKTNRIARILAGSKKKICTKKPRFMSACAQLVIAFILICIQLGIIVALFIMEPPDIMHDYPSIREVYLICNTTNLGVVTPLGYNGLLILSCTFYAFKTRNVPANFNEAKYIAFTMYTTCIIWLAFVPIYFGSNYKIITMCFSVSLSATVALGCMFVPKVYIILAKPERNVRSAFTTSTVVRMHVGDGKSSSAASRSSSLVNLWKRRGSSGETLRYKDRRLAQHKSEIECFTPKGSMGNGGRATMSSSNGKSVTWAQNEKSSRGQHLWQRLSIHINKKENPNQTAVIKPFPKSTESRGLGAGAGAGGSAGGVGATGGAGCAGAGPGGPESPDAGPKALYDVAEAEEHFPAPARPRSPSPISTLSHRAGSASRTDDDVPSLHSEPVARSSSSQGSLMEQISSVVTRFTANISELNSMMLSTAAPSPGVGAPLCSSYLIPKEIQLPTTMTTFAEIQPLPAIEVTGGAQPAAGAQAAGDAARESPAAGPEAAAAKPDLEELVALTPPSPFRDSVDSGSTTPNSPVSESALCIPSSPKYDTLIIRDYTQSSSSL

Compound | EC50
O=C(Cc1nc(-c2ccccc2)cn1-c1ccccc1)N1CCN(c2ncccn2)CC1 [Example 7.01.01., 2-(1,4-diphenyl-1H-imidazol-2-yl)-1-(4-pyrimidin-2-yl-piperazin-1-yl)-ethanone] | 155 nM
O=C(Cc1nc(-c2ccc(F)cc2)cn1-c1ccc(F)cc1)N1CCN(c2ncccn2)CC1 [Example 7.01.02.] | 43 nM
COc1ccc(-c2cn(-c3ccc(OC)cc3)c(CC(=O)N3CCN(c4ncccn4)CC3)n2)cc1 [Example 7.01.03.] | 88 nM
Cc1ccc(-n2cc(-c3ccccc3)nc2CC(=O)N2CCN(c3ncccn3)CC2)cc1 [Example 7.01.04.] | 211 nM
O=C(Cc1nc(-c2ccc(F)cc2)cn1-c1ccc(F)cc1)N1CCN(c2ccccn2)CC1 [Example 7.02.01., 2-(1,4-Bis-(4-fluoro-phenyl)-1H-imidazol-2-yl)-1-(4-pyridin-2-yl-piperazin-1-yl)-ethanonene] | 54 nM
COc1ccnc(N2CCN(C(=O)Cc3nc(-c4ccc(F)cc4)cn3-c3ccc(F)cc3)CC2)c1 [Example 7.03.01., 2-(1,4-Bis-(4-fluoro-phenyl)-1H-imidazol-2-yl)-1-(4-(4-methoxy-pyridin-2-yl)-piperazin-1-yl)-ethanone] | 57 nM
O=C(Cc1nc(-c2ccc(F)cc2)cn1-c1ccc(F)cc1)N1CCN(c2cccnn2)CC1 [Example 7.03.02.] | 112 nM
O=C(Cc1nc(-c2ccc(F)cc2)cn1-c1ccc(F)cc1)N1CCN(c2ncncn2)CC1 [Example 7.04.01., 2-(1,4-Bis-(4-fluoro-phenyl)-1H-imidazol-2-yl)-1-(4-[1,3,5]triazin-2-yl-piperazin-1-yl)-ethanone] | 52 nM
COc1cc(N2CCN(C(=O)Cc3nc(-c4ccc(F)cc4)cn3-c3ccc(F)cc3)CC2)ncn1 [Example 7.04.02.] | 80 nM
COc1cc(N2CCN(C(=O)Cc3nc(-c4ccc(C)cc4)cn3-c3ccc(F)cc3)CC2)ncn1 [Example 7.04.07.] | 114 nM
COc1ccc(-c2cn(-c3ccc(F)cc3)c(CC(=O)N3CCN(c4ncncn4)CC3)n2)cc1 [Example 7.04.15.] | 91 nM
COc1ccc(-c2cn(-c3ccc(F)cc3)c(CC(=O)N3CCN(c4ncc(OC)cn4)CC3)n2)cc1 [Example 7.04.16.] | 47 nM
COc1ccnc(N2CCN(C(=O)Cc3nc(-c4ccc(Cl)c(C)c4)cn3-c3ccc(F)cc3)CC2)c1 [Example 7.04.20.] | 69 nM
COc1cc(N2CCN(C(=O)Cc3nc(-c4ccc(Cl)c(C)c4)cn3-c3ccc(F)cc3)CC2)ncn1 [Example 7.04.21.] | 114 nM
Cc1cc(-c2cn(-c3ccc(F)cc3)c(CC(=O)N3CCN(c4cccnn4)CC3)n2)ccc1F [Example 7.04.24.] | 64 nM
COc1ccnc(N2CCN(C(=O)Cc3nc(-c4ccc(F)c(C)c4)cn3-c3ccc(F)cc3)CC2)c1 [Example 7.04.27.] | 44 nM
COc1ccc(-c2cn(-c3ccccc3)c(CC(=O)N3CCN(c4cc(OC)ncn4)CC3)n2)cc1 [Example 7.04.29.] | 119 nM
COc1ccc(-c2cn(-c3ccccc3)c(CC(=O)N3CCN(c4ccccn4)CC3)n2)cc1 [Example 7.04.30.] | 190 nM
COc1ccc(-c2cn(-c3ccccc3)c(CC(=O)N3CCN(c4cc(OC)ccn4)CC3)n2)cc1 [Example 7.04.31.] | 146 nM
COc1ccc(-c2cn(-c3ccccc3)c(CC(=O)N3CCN(c4ncncn4)CC3)n2)cc1 [Example 7.04.32.] | 281 nM
COc1ccc(-c2cn(-c3ccccc3)c(CC(=O)N3CCN(c4ncccn4)CC3)n2)cc1 [Example 7.04.33.] | 112 nM
COc1ccc(-c2cn(-c3ccccc3)c(CC(=O)N3CCN(c4ncc(F)cn4)CC3)n2)cc1 [Example 7.04.34.] | 95 nM
COc1ccc(-c2cn(-c3ccccc3)c(CC(=O)N3CCN(c4ncc(OC)cn4)CC3)n2)cc1 [Example 7.04.35.] | 76 nM
COc1ccc(-c2cn(-c3ccc(F)cc3)c(CC(=O)N3CCN(c4ncc(F)cn4)CC3)n2)cc1 [Example 7.04.36.] | 57 nM
COc1cccc(-c2cn(-c3ccc(F)cc3)c(CC(=O)N3CCN(c4ncccn4)CC3)n2)c1 [Example 7.04.37.] | 46 nM
COc1cccc(-c2cn(-c3ccc(F)cc3)c(CC(=O)N3CCN(c4cc(OC)ncn4)CC3)n2)c1 [Example 7.04.38.] | 108 nM
COc1cccc(-c2cn(-c3ccc(F)cc3)c(CC(=O)N3CCN(c4cc(OC)ccn4)CC3)n2)c1 [Example 7.04.39.] | 106 nM
COc1cccc(-c2cn(-c3ccc(F)cc3)c(CC(=O)N3CCN(c4ncncn4)CC3)n2)c1 [Example 7.04.40.] | 143 nM
COc1cccc(-c2cn(-c3ccc(F)cc3)c(CC(=O)N3CCN(c4ccccn4)CC3)n2)c1 [Example 7.04.41.] | 92 nM

Now from value to compound:

EC50 | Compound
42 nM | Cc1ccc(-c2cn(-c3ccc(F)cc3)c(CC(=O)N3CCN(c4cccnn4)CC3)n2)cc1 [Example 7.04.03.]
18 nM | Cc1ccc(-c2cn(-c3ccc(F)cc3)c(CC(=O)N3CCN(c4ncccn4)CC3)n2)cc1 [Example 7.04.04.]
42 nM | COc1ccnc(N2CCN(C(=O)Cc3nc(-c4ccc(C)cc4)cn3-c3ccc(F)cc3)CC2)c1 [Example 7.04.05.]
36 nM | Cc1ccc(-c2cn(-c3ccc(F)cc3)c(CC(=O)N3CCN(c4ccccn4)CC3)n2)cc1 [Example 7.04.06.]
41 nM | Cc1ccc(-c2cn(-c3ccc(F)cc3)c(CC(=O)N3CCN(c4ncncn4)CC3)n2)cc1 [Example 7.04.08.]
20 nM | COc1cnc(N2CCN(C(=O)Cc3nc(-c4ccc(C)cc4)cn3-c3ccc(F)cc3)CC2)nc1 [Example 7.04.09.]
20 nM | COc1ccc(-c2cn(-c3ccc(F)cc3)c(CC(=O)N3CCN(c4ncccn4)CC3)n2)cc1 [Example 7.04.10.]
40 nM | COc1ccc(-c2cn(-c3ccc(F)cc3)c(CC(=O)N3CCN(c4cccnn4)CC3)n2)cc1 [Example 7.04.11.]
40 nM | COc1ccc(-c2cn(-c3ccc(F)cc3)c(CC(=O)N3CCN(c4cc(OC)ccn4)CC3)n2)cc1 [Example 7.04.12.]
37 nM | COc1ccc(-c2cn(-c3ccc(F)cc3)c(CC(=O)N3CCN(c4ccccn4)CC3)n2)cc1 [Example 7.04.13.]
33 nM | COc1ccc(-c2cn(-c3ccc(F)cc3)c(CC(=O)N3CCN(c4cc(OC)ncn4)CC3)n2)cc1 [Example 7.04.14.]
21 nM | Cc1cc(-c2cn(-c3ccc(F)cc3)c(CC(=O)N3CCN(c4ncccn4)CC3)n2)ccc1Cl [Example 7.04.17.]
30 nM | Cc1cc(-c2cn(-c3ccc(F)cc3)c(CC(=O)N3CCN(c4ccccn4)CC3)n2)ccc1Cl [Example 7.04.18.]
13 nM | Cc1cc(-c2cn(-c3ccc(F)cc3)c(CC(=O)N3CCN(c4cccnn4)CC3)n2)ccc1Cl [Example 7.04.19.]
35 nM | Cc1cc(-c2cn(-c3ccc(F)cc3)c(CC(=O)N3CCN(c4ncncn4)CC3)n2)ccc1Cl [Example 7.04.22.]
42 nM | Cc1cc(-c2cn(-c3ccc(F)cc3)c(CC(=O)N3CCN(c4ccccn4)CC3)n2)ccc1F [Example 7.04.23.]
21 nM | Cc1cc(-c2cn(-c3ccc(F)cc3)c(CC(=O)N3CCN(c4ncccn4)CC3)n2)ccc1F [Example 7.04.25.]
41 nM | COc1cc(N2CCN(C(=O)Cc3nc(-c4ccc(F)c(C)c4)cn3-c3ccc(F)cc3)CC2)ncn1 [Example 7.04.26.]
24 nM | Cc1cc(-c2cn(-c3ccc(F)cc3)c(CC(=O)N3CCN(c4ncncn4)CC3)n2)ccc1F [Example 7.04.28.]
24 nM | Cc1cc(-c2cn(-c3ccccc3)c(CC(=O)N3CCN(c4ccccn4)CC3)n2)ccc1F [Example 7.04.42.]
19 nM | COc1cc(N2CCN(C(=O)Cc3nc(-c4ccc(F)c(C)c4)cn3-c3ccccc3)CC2)ncn1 [Example 7.04.43.]
11 nM | Cc1cc(-c2cn(-c3ccccc3)c(CC(=O)N3CCN(c4ncccn4)CC3)n2)ccc1F [Example 7.04.44.]
28 nM | COc1ccnc(N2CCN(C(=O)Cc3nc(-c4ccc(F)c(C)c4)cn3-c3ccccc3)CC2)c1 [Example 7.04.45.]
21 nM | COc1cnc(N2CCN(C(=O)Cc3nc(-c4ccc(F)c(C)c4)cn3-c3ccccc3)CC2)nc1 [Example 7.04.46.]
